The target of the assay is T1, HIV-1 integrase (Human immunodeficiency virus type 1 group M subtype B, UniProt P04585).
T1 construct: Purified recombinant HIV-1 integrase was incubated with immobilized precleaved substrate DNA
Briefly: In vitro activity against integrase, Method A (immobilized precleaved substrate DNA, biotinylated target DNA, 96 well plate). Format: biochemical. The conditions noted are these: Assay Method A, read-out: Percent inhibition of HIV Integrase at 70 uM. How it is done: The in vitro activities, against integrase, of compounds of the present invention were measured by one of the following three methods.
In Method A, the in vitro activity against integrase was measured in a manner which was similar to previously disclosed methods (cf. Hazuda, D. J.; Felock, P.; Witmer, M.; Wolfe, A.; Stillmock, K.; Grobler, J. A.; Espeseth, A.; Gabryelski, L.; Schleif, W.; Blau, C.; Miller, M. D. Science, 2000, 287, 646) Purified recombinant HIV-1 integrase was incubated with immobilized precleaved substrate DNA in a 96 well plate for 20 min at 37° C. After the integration complex was formed, compounds at desired concentrations were added to the wells followed by a 10 min incubation at 37° C. Biotinyted Target DNA was then added and the reaction was carried out for an additional 1 hour at 37° C. Wells were then washed thoroughly to remove any free DNA and integration activity was measured by using a commercial kit to quantitate the amount of biotinyted target DNA integrated into the substrate.
As to `COc1ccc(CN(Cc2ccc(F)cc2)C(=O)/C=C(\O)C(=O)O)c(OC)c1` [Compound 35, 3-[(2,4-Dimethoxy-benzyl)-(4-fluoro-benzyl)-carbamoyl]-2-hydroxy-acrylic acid], the inhibition at 70 µM amounted to 95.5%.
As for `CN(Cc1cccc(Cc2ccc(F)cc2)c1)C(=O)/C=C(\O)C(=O)O` [Compound 2, 3-{[3-(4-Fluoro-benzyl)-benzyl]-methyl-carbamoyl}-2-hydroxy-acrylic acid], the figure is 88%; as for `O=C(O)/C(O)=C/C(=O)N(Cc1ccc(F)cc1)Cc1csc2ccc(Cl)cc12` [Compound 21, 3-[(5-Chloro-benzo[b]thiophen-3-ylmethyl)7(4-fluoro-benzyl)-carbamoyl]-2-hydroxy-acrylic acid], 98%; as for `CC(C)(C)N(Cc1ccc(F)cc1)C(=O)/C=C(\O)C(=O)O` [Compound 27, 3-[tert-Butyl-(4-fluoro-benzyl)-carbamoyl]-2-hydroxy-acrylic acid], 33.5%.
Turning to `CCN(Cc1ccc(F)cc1)C(=O)/C=C(\O)C(=O)O` [Compound 32, 3-[Ethyl-(4-fluoro-benzyl)-carbamoyl]-2-hydroxy-acrylic acid], the inhibition at 70 µM amounted to 93%.
For the molecule `CC(c1ccccc1)N(Cc1ccc(F)cc1)C(=O)/C=C(\O)C(=O)O` (stereo not drawn) [Compound 23, 3-[(4-Fluoro-benzyl)-(1-phenyl-ethyl)-carbamoyl]-2-hydroxy-acrylic acid], the inhibition at 70 µM is 55%.
On to `O=C(O)/C(O)=C/C(=O)N(Cc1ccc(F)cc1)c1ccc(F)cc1OCc1ccc(F)cc1` [Compound 88, 3-{(4-Fluoro-benzyl)-[4-fluoro-2-(4-fluoro-benzyloxy)-phenyl]-carbamoyl}-2-hydroxy-acrylic acid], for which the inhibition at 70 µM was found to be 90%.
The result for `CN(C(=O)/C=C(\O)C(=O)O)C(c1ccc(Cl)cc1)c1ccc(Cl)cc1` [Compound 4, 3-{[Bis-(4-chloro-phenyl)-methyl]-methyl-carbamoyl}-2-hydroxy-acrylic acid] reads 90%; that for `COCCN(Cc1ccc(F)cc1)C(=O)/C=C(\O)C(=O)O` [Compound 42, 3-[(4-Fluoro-benzyl)-(2-methoxy-ethyl)-carbamoyl]-2-hydroxy-acrylic acid], 91%.
With `CN(C(=O)/C=C(\O)C(=O)O)C(c1ccccc1)c1ccccc1` [Compound 7, 3-(Benzhydryl-methyl-carbamoyl)-2-hydroxy-acrylic acid], the inhibition at 70 µM is 32%.
The result for `CN(Cc1ccccc1)C(=O)/C=C(\O)C(=O)O` [Compound 17, 3-(Benzyl-methyl-carbamoyl)-2-hydroxy-acrylic acid] reads 89.5%; that for `O=C(O)/C(O)=C/C(=O)N(Cc1ccc(F)cc1)Cc1ccc(F)cc1F` [Compound 25, 3-[(2,4-Difluoro-benzyl)-(4-fluoro-benzyl)-carbamoyl]-2-hydroxy-acrylic acid], 96.5%.
As for `O=C(O)/C(O)=C/C(=O)N(CCCc1ccccc1)Cc1ccc(F)cc1` [Compound 43, 3-[(4-Fluoro-benzyl)-(3-phenyl-propyl)-carbamoyl]-2-hydroxy-acrylic acid], the figure is 93.5%; as for `CN(Cc1ccc(OCc2ccc(F)cc2)cc1)C(=O)/C=C(\O)C(=O)O` [Compound 1, 3-{[4-(4-Fluoro-benzyloxy)-benzyl]-methyl-carbamoyl}-2-hydroxy-acrylic acid], 40%.
Regarding `CN(Cc1cccc(C(F)(F)F)c1)C(=O)/C=C(\O)C(=O)O` [Compound 37, 2-Hydroxy-3-[methyl-(3-trifluoromethyl-benzyl)-carbamoyl]-acrylic acid], the inhibition at 70 µM was determined as 82.5%.
Take `CN(Cc1cccc(OCc2ccc(F)cc2)c1)C(=O)/C=C(\O)C(=O)O` [Compound 3, 3-{[3-(4-Fluoro-benzyloxy)-benzyl]-methyl-carbamoyl}-2-hydroxy-acrylic acid]: the inhibition at 70 µM was 99%.
As for `CC(C)N(Cc1ccc(F)cc1)C(=O)/C=C(\O)C(=O)O` [Compound 29, 3-[(4-Fluoro-benzyl)-isopropyl-carbamoyl]-2-hydroxy-acrylic acid], the figure is 38%.
In the case of `CN(Cc1ccc(F)c2ccccc12)C(=O)/C=C(\O)C(=O)O` [Compound 41, 3-[(4-Fluoro-naphthalen-1-ylmethyl)-methyl-carbamoyl]-2-hydroxy-acrylic acid], the inhibition at 70 µM came out at 95%.
The result for `O=C(O)/C(O)=C/C(=O)N(CCc1ccccc1)Cc1ccccc1` [Compound 13, 3-(Benzyl-phenethyl-carbamoyl)-2-hydroxy-acrylic acid] reads 94%.
As for `CN(CCc1ccc(F)cc1)C(=O)/C=C(\O)C(=O)O` [Compound 22, 3-{[2-(4-Fluoro-phenyl)-ethyl]-methyl-carbamoyl}-2-hydroxy-acrylic acid], the figure is 75%; as for `CN(Cc1ccccc1F)C(=O)/C=C(\O)C(=O)O` [Compound 38, 3-[(2-Fluoro-benzyl)-methyl-carbamoyl]-2-hydroxy-acrylic acid], 70%; as for `O=C(O)/C(O)=C/C(=O)N(CCc1ccc(F)cc1)Cc1ccccc1Cl` [Compound 18, 3-{(2-Chloro-benzyl)-[2-(4-fluoro-phenyl)-ethyl]-carbamoyl}-2-hydroxy-acrylic acid], 89.5%.
On to `CN(Cc1cccc(F)c1)C(=O)/C=C(\O)C(=O)O` [Compound 40, 3-[(3-Fluoro-benzyl)-methyl-carbamoyl]-2-hydroxy-acrylic acid], for which the inhibition at 70 µM stood at 90%.
The result for `COc1ccc(C(c2ccc(OC)cc2)N(C)C(=O)/C=C(\O)C(=O)O)cc1` [Compound 6, 3-{[Bis-(4-methoxy-phenyl)-methyl]-methyl-carbamoyl}-2-hydroxy-acrylic acid] reads 75%; that for `CN(C(=O)/C=C(\O)C(=O)O)C(c1ccc(F)cc1)c1ccc(F)cc1` [Compound 5, 3-{[Bis-(4-fluoro-phenyl)-methyl]-methyl-carbamoyl}-2-hydroxy-acrylic acid], 65%; that for `CN(Cc1csc2ccc(Cl)cc12)C(=O)/C=C(\O)C(=O)O` [Compound 15, 3-[(5-Chloro-benzo[b]thiophen-3-ylmethyl)-methyl-carbamoyl]-2-hydroxy-acrylic acid], 97%.
The result for `CN(C(=O)/C=C(\O)C(=O)O)C(c1ccc(F)cc1)c1cccnc1` (stereo not drawn) [Compound 77, 3-{[(4-Fluoro-phenyl)-pyridin-3-yl-methyl]-methyl-carbamoyl}-2-hydroxy-acrylic acid] reads 60%.
As to `O=C(O)/C(O)=C/C(=O)N(Cc1ccc(F)cc1)Cc1cccc(Cl)c1` [Compound 28, 3-[(3-Chloro-benzyl)-(4-fluoro-benzyl)-carbamoyl]-2-hydroxy-acrylic acid], the inhibition at 70 µM stood at 96.5%.
For `O=C(O)/C(O)=C/C(=O)N(CCc1ccc(F)cc1)Cc1csc2ccc(Cl)cc12` [Compound 20, 3-{(5-Chloro-benzo[b]thiophen-3-ylmethyl)-[2-(4-fluoro-phenyl)-ethyl]-carbamoyl}-2-hydroxy-acrylic acid], the inhibition at 70 µM turned out to be 97.5%.
With `CN(Cc1ccccc1Br)C(=O)/C=C(\O)C(=O)O` [Compound 12, 3-[(2-Bromo-benzyl)-methyl-carbamoyl]-2-hydroxy-acrylic acid], the inhibition at 70 µM was found to be 85%.
Take `COc1ccc(CN(C)C(=O)/C=C(\O)C(=O)O)cc1` [Compound 31, 2-Hydroxy-3-[(4-methoxy-benzyl)-methyl-carbamoyl]-acrylic acid]: the inhibition at 70 µM was determined as 82%.
For the molecule `COc1cccc(CN(C)C(=O)/C=C(\O)C(=O)O)c1` [Compound 33, 2-Hydroxy-3-[(3-methoxy-benzyl)-methyl-carbamoyl]-acrylic acid], the inhibition at 70 µM amounted to 90%.
As for `O=C(O)/C(O)=C/C(=O)N(Cc1ccc(F)cc1)Cc1ccccc1Cl` [Compound 19, 3-[(2-Chloro-benzyl)-(4-fluoro-benzyl)-carbamoyl]-2-hydroxy-acrylic acid], the figure is 96.5%; as for `CN(Cc1ccccc1OCc1ccc(F)cc1)C(=O)/C=C(\O)C(=O)O` [Compound 82, 3-{[2-(4-Fluoro-benzyloxy)-benzyl]-methyl-carbamoyl}-2-hydroxy-acrylic acid], 80%; as for `CN(Cc1ccccc1-c1ccccc1)C(=O)/C=C(\O)C(=O)O` [Compound 39, 3-(Biphenyl-2-ylmethyl-methyl-carbamoyl)-2-hydroxy-acrylic acid], 85%.
With `CN(Cc1ccc(OCc2ccccc2)cc1)C(=O)/C=C(\O)C(=O)O` [Compound 36, 3-[(4-Benzyloxy-benzyl)-methyl-carbamoyl]-2-hydroxy-acrylic acid], the inhibition at 70 µM turned out to be 30%.
The result for `Cc1ccc(CN(C)C(=O)/C=C(\O)C(=O)O)cc1` [Compound 30, 2-Hydroxy-3-[methyl-(4-methyl-benzyl)-carbamoyl]-acrylic acid] reads 84%.
Consider `O=C(O)/C(O)=C/C(=O)N(Cc1ccc(F)cc1)Cc1ccc(F)c(F)c1` [Compound 26, 3-[(3,4-Difluoro-benzyl)-(4-fluoro-benzyl)-carbamoyl]-2-hydroxy-acrylic acid], for which the inhibition at 70 µM is 97%.
As for `O=C(O)/C(O)=C/C(=O)N(Cc1ccc(F)cc1)Cc1ccc(Cl)cc1` [Compound 24, 3-[(4-Chloro-benzyl)-(4-fluoro-benzyl)-carbamoyl]-2-hydroxy-acrylic acid], the figure is 90%.

The record behind these values is patent publication US6803378B2, “HIV integrase inhibitors” (Bristol-Myers Squibb Company, priority 2000, dated 2004).
